Assay results published in the NIST ThermoML archive (doi:10.1016/j.fluid.2019.01.025).

Assay: xn = mol fraction of the nth substance listed
Conditions: for viscosity / mass density: 91.2 kPa, Liquid; for viscosity: Concentric cylinders viscometry; for mass density: Vibrating tube method; for surface tension liquid-gas: Ring tensiometer

C[C@H](O)C(=O)O [(S)-2-hydroxypropanoic acid] + C[N+](C)(C)CCO.[Cl-]
x2 = 0.5
Conditions | mass density [kg/m3] | surface tension liquid-gas [mN/m] | viscosity [mPa·s]
293 K | 1150 | – | 309
298 K | 1150 | 42.87 | –
303 K | 1150 | – | 151
308 K | 1140 | – | –
313 K | 1140 | – | 101
318 K | 1140 | – | –
323 K | 1130 | – | 59
333 K | – | – | 35
343 K | – | – | 34
353 K | – | – | 25

C[C@H](O)C(=O)O [(S)-2-hydroxypropanoic acid] + O=C[C@H](O)[C@@H](O)[C@H](O)[C@H](O)CO
x1 = 0.833
Conditions | mass density [kg/m3] | surface tension liquid-gas [mN/m] | viscosity [mPa·s]
293 K | 1280 | – | 335
298 K | 1270 | 37.42 | –
303 K | 1270 | – | 161
308 K | 1270 | – | –
313 K | 1260 | – | 79
318 K | 1260 | – | –
323 K | 1250 | – | 34
333 K | – | – | 18
343 K | – | – | 16
353 K | – | – | 13
